In ChEMBL document CHEMBL1201862, “PubChem BioAssay data set” (2004):
Activity calls are given as the source filed them.

Columns and labels:
cells [1] = type: functional, cell-based; details: HEK-CNG
Galanin receptor type 3 = Galanin receptor type 3 (Homo sapiens, UniProt O60755); experiment: Fluorescence-based cell-based primary high throughput dose response assay to identify antagonists of the Galanin Receptor 3 (GalR3).; type: functional
[2] = target: T1, Corticotropin-releasing factor receptor 2/Corticotropin-releasing factor-binding protein (Homo sapiens, UniProt P24387+Q13324); experiment: activators of CRF receptor 2 with binding protein – uHTS hits, confirmation (AID 602473); type: functional; details: read-out: EC50_Mean
T1 sequence (Q13324 whole entry): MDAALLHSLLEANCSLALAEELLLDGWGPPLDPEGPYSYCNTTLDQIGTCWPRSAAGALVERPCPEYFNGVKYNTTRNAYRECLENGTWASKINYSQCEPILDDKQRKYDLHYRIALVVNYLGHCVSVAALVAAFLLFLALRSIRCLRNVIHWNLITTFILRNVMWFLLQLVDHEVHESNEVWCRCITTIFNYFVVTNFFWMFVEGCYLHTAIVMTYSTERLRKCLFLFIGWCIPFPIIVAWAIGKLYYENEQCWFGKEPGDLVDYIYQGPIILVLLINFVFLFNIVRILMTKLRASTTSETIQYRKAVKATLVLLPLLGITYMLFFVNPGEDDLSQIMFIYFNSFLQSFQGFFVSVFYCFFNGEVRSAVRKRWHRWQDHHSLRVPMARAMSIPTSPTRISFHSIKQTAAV
T1 sequence (P24387 whole entry): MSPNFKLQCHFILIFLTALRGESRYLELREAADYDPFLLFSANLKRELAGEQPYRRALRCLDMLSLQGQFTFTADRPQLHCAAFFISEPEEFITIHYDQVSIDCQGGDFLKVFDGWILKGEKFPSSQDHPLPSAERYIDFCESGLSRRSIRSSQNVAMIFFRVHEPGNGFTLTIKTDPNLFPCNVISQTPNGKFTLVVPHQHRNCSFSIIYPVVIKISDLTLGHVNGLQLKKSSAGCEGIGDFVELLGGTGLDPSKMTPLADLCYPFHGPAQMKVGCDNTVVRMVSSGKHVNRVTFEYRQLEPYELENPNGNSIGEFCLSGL

[3] = off-target signal loss in HeLa-CEM21 co-culture – HeLa F-luc CTL cells, cherry-picked, counter-screen for HIV-1 Env fusion inhibitor project, dose response (AID 652040); type: functional, cell-based;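 also: potency for signal decrease marking cytotoxic or nonspecific inhibition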
[4] = inhibitors of clade B AD8 Env fusion, dose response, cell-based, cherry-pick (AID 652062); type: functional;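 also: luciferase signal from cell-cell fusion driven by HIV-1 clade B AD8 Env; potency is for inhibitors of fusion seen as a drop in luminescence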
[5] = target: T1, Corticotropin-releasing factor receptor 2/Corticotropin-releasing factor-binding protein; experiment: Dose Response confirmation of uHTS hits for small molecule antagonists of the CRF-binding protein and CRF-R2 receptor complex.; type: functional; details: read-out: IC50_Mean
Cytochrome P450 2C9 = Cytochrome P450 2C9 (Homo sapiens, UniProt P11712)
[6] = target: T2, Trace amine-associated receptor 1 (Homo sapiens, UniProt Q96RJ0); experiment: Counterscreen for agonists of the human trace amine associated receptor 1 (hTAAR1): Fluorescence-based cell-based high throughput dose response assay to identify hTAAR1 agonist that also desensitize TAAR1 receptor response.; type: functional
T2 sequence (Q96RJ0 whole entry): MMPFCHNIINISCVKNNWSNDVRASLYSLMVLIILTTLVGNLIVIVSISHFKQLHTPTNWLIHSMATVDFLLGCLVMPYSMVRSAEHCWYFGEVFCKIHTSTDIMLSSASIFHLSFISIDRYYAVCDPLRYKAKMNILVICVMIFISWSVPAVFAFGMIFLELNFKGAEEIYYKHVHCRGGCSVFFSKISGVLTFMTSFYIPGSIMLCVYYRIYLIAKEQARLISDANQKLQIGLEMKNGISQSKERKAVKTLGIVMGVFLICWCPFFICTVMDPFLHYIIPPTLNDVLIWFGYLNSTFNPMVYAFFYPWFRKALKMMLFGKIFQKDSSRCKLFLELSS

cells [7] = type: functional, cell-based
[8] = target: T2, Trace amine-associated receptor 1; experiment: Fluorescence-based cell-based high throughput dose response assay to identify agonists of the human trace amine associated receptor 1 (TAAR1).; type: functional
cells [9] = type: functional, cell-based; remark: listed apart in the source
[10] = target: T3, Sentrin-specific protease 8 (Homo sapiens, UniProt Q96LD8); type: functional
T3 sequence (Q96LD8 whole entry): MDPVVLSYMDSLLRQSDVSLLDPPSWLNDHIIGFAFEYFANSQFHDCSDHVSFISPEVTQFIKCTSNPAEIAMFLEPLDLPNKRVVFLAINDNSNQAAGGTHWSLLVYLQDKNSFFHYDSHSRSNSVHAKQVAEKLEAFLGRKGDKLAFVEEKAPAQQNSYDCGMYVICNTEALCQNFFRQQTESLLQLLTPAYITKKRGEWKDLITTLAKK

[11] = ARNT/TACC3 interaction disruptors, potency, confirmation, biochemical, AlphaScreen, cherry-picked samples (AID 651703); type: functional, Homo sapiens;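 also: His-tagged ARNT PAS-B domain paired with GST-TACC3 E629A dimer coactivator fragment; potency of inhibitors that break up the complex and lower AlphaScreen signal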
[12] = target: T3, Sentrin-specific protease 8; type: functional; remark: listed apart in the source
[13] = target: T4, Zinc finger protein mex-5 (Caenorhabditis elegans, UniProt Q9XUB2); experiment: MEX-5/TCR-2 RNA interaction inhibitors, dose response, biochemical, C. elegans, fluorescence polarization (AID 1960)
T4 sequence (Q9XUB2 whole entry): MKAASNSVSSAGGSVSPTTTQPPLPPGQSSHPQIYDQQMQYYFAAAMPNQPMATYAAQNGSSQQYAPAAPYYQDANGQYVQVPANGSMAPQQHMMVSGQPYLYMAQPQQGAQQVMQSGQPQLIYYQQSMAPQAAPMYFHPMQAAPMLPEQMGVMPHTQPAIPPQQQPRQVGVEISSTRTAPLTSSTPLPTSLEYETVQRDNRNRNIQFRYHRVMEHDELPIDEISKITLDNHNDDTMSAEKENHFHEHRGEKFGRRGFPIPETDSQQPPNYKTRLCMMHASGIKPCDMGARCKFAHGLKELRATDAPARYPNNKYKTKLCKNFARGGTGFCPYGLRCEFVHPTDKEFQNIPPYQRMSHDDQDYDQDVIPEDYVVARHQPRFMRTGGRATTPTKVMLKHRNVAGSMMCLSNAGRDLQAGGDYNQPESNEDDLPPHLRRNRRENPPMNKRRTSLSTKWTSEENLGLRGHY

[14] = target: T5, Tyrosyl-DNA phosphodiesterase 2 (Homo sapiens, UniProt O95551); experiment: human TDP2 enzyme inhibitors, dose response, biochemical, epi absorbance, IC50 (AID 743297)
T5 sequence (O95551 whole entry): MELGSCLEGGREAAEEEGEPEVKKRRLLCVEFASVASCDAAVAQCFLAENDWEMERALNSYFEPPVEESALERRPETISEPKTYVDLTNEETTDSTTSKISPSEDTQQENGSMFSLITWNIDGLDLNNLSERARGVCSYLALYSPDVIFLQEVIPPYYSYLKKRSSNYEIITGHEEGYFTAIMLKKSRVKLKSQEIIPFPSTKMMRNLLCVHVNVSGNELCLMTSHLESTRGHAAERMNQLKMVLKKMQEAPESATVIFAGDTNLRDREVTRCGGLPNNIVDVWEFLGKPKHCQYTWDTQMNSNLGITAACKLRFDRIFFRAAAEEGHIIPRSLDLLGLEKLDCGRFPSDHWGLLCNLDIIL

Protein RecA = target: T6, Protein RecA (Mycobacterium tuberculosis, UniProt P9WHJ3); experiment: Fluorescence Cell-Free Homogeneous Dose Retest to Identify Inhibitors of RecA-Intein Splicing Activity. [Related pubchem assays (depositor defined):AID2097, AID2223, AID489010, AID492950]; type: functional
T6 sequence (P9WHJ3 whole entry): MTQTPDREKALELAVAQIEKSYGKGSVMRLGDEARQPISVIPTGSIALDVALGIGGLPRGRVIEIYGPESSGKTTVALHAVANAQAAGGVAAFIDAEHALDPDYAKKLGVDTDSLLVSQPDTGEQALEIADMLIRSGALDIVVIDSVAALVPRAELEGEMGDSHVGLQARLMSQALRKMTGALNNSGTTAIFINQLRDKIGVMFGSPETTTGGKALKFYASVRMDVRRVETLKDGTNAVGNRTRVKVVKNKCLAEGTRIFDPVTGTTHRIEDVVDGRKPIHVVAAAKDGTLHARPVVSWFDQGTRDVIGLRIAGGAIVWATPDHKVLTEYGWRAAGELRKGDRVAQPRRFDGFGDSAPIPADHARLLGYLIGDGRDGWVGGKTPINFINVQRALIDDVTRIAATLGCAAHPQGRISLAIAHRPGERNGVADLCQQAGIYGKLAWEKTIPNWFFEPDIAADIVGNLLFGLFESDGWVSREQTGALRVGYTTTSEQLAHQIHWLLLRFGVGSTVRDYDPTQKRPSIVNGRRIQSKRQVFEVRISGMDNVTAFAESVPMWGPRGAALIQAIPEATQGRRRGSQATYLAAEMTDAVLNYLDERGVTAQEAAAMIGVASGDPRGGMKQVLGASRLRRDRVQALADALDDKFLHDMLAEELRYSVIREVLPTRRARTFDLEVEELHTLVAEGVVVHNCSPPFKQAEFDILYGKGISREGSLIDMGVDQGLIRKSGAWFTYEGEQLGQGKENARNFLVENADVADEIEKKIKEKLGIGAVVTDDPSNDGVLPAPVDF

[15] = target: T7, RNA-binding protein pos-1 (Caenorhabditis elegans, UniProt G5EF15); experiment: inhibitors of POS-1/mex-3 RNA binding, dose response, biochemical, fluorescence polarization (AID 1964);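 also: purified POS-1 fused to maltose binding protein made in E. coli; potency of compounds blocking POS-1 binding to fluorescent RNA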
T7 sequence (G5EF15 whole entry): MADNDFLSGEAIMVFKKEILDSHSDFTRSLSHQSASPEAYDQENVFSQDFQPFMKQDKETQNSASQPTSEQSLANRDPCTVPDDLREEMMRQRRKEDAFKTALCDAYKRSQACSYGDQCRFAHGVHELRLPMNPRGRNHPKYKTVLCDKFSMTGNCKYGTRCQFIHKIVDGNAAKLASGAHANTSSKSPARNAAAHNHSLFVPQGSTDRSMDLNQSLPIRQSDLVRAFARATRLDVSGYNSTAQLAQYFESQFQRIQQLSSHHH

[16] = target: T8, Replicative DNA helicase DnaB (Mycobacterium tuberculosis, UniProt P9WMR3); experiment: DnaB intein splicing inhibitors, dose response, biochemical, cell-free fluorescence (AID 449749); type: functional
T8 sequence (P9WMR3 whole entry): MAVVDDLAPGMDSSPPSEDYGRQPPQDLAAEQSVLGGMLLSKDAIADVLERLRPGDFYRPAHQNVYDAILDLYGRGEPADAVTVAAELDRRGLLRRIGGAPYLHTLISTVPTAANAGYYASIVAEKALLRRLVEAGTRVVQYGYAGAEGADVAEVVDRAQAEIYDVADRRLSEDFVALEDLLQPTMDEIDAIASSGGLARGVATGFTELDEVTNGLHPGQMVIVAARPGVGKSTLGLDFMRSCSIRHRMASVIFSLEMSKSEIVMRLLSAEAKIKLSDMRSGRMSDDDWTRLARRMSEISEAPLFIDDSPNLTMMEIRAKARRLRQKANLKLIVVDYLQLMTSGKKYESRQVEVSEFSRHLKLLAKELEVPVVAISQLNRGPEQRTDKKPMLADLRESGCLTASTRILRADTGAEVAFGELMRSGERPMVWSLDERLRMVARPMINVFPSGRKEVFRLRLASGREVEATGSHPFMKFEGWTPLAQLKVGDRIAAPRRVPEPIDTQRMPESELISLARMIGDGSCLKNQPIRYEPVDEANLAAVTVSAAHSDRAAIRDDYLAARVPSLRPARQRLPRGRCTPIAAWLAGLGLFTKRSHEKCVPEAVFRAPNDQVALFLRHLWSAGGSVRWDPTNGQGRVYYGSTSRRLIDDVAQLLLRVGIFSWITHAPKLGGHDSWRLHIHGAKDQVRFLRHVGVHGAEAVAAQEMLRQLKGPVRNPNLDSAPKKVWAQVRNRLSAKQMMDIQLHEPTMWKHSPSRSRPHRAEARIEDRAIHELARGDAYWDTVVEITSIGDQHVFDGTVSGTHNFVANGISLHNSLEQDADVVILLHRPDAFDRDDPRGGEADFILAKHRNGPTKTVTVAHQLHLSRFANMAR

[17] = NIH/3T3 fibroblast cytotoxicity, dose response, cytotoxicity control for T. cruzi growth inhibitor project, cell-based, cherry-pick samples, set 2 (AID 651817); type: functional; details: NIH3T3
[18] = HEK293T cell cytotoxicity, dose response, cytotoxicity control for HIV Vif inhibitor project, cherry-picks (AID 652208); type: functional, cell-based
Streptococcus = experiment: Group A Streptococcus viability loss, dose response, counter-screen for streptokinase expression inhibitor project, luminescence, BacTiterGlo (AID 1915); type: functional, organism-based;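 also: potency for reduction of bacterial viability or growth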
[19] = system: Streptococcus sp. 'group A'; experiment: growth inhibition of control SK(-) GAS strain, dose response, counter-screen for streptokinase expression inhibitor project, luminescence, kanamycin, BacTiterGlo, confirmation (AID 1900); type: functional, organism-based
[20] = Luminescence Cell-Based Dose Retest to Confirm Inhibitors of Cancer Stem Cells. [Related pubchem assays (depositor defined):AID2717, AID2721]; type: functional; details: Homo sapiens

Chain of Galanin receptor type 3 (O60755 whole entry): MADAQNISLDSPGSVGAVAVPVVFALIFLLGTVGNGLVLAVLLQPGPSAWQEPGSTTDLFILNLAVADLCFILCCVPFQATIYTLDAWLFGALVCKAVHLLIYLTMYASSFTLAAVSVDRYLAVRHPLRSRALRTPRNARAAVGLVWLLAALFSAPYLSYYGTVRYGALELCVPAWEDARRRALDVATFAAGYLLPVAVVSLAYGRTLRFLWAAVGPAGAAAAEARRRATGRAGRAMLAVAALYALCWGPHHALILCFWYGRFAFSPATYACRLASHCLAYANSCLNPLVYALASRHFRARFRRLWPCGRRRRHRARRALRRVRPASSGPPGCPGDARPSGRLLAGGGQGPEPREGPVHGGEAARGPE
Chain of Cytochrome P450 2C9 (P11712 whole entry): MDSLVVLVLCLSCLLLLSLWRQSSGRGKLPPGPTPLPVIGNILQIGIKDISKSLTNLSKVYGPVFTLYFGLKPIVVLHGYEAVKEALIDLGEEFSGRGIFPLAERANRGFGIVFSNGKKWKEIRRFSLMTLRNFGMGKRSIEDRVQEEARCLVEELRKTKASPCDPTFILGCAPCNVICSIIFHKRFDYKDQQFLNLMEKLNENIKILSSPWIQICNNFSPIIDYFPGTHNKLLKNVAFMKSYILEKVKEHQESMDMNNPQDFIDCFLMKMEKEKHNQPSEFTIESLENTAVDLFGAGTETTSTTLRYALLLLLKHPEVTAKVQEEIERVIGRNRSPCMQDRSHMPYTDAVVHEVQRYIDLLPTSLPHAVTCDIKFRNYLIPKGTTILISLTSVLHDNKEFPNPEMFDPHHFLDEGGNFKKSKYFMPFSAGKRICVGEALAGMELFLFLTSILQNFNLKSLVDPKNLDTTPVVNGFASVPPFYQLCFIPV

Cc1nn(C)c(Cl)c1NC(=O)OCc1ccc(Cl)cc1Cl
EC50 (cells [1]): > 29.9 µM (inactive) | IC50 (Galanin receptor type 3): 2.13 µM (active) | EC50 [2]: > 53 µM (inactive) | AC50 [3]: > 70 µM (inactive) | AC50 [4]: 22.5 µM (active) | IC50 [5]: > 47.1 µM (inactive) | AC50 (Cytochrome P450 2C9): inconclusive

O=C(CSC1=Nc2ccc(Cl)cc2S(=O)(=O)N1)NCCc1ccccc1
IC50 [6]: 2.41 µM (active) | EC50 (cells [7]): > 29.9 µM (inactive) | EC50 [8]: 0.295 µM (active) | IC50 (cells [9]): > 29.9 µM (inactive)

Cc1n[nH]c(O)c1C(c1ccc(-c2ccccc2C(=O)O)o1)c1c(C)n[nH]c1O
IC50 [10]: > 100 µM (inactive) | AC50 [11]: 82.1 µM (active) | IC50 [12]: 16.4 µM (active) | EC50 [13]: 37 µM (active) | IC50 [14]: > 128 µM (inactive) | EC50 (Protein RecA): 0.256 µM (active) | EC50 [15]: 148 µM (active) | AC50 [16]: 0.335 µM (active)

COc1ccc(CN(C)C[C@H]2Oc3c(NC(=O)Nc4ccc(C(F)(F)F)cc4)cccc3C(=O)N([C@@H](C)CO)C[C@@H]2C)cc1
AC50 [17]: 14.4 µM (active)

COc1cc(NC(=O)c2ccc(-c3csc(C)n3)cc2)c(OC)cc1Cl
AC50 [18]: 38.2 µM (active)

Cc1nn2c(COc3ccc(NC(=O)c4ccccc4Cl)cc3)nnc2c2ccccc12
EC50 (Streptococcus): 1.36 µM (active) | EC50 [19]: 2.06 µM (active) | AC50 [20]: 2.59 µM (active) | AC50 [18]: > 52 µM (inactive)

C[C@H](CO)N1C[C@H](C)[C@H](CN(C)Cc2ccc(Cl)c(Cl)c2)Oc2c(NC(=O)c3ccncc3)cccc2C1=O
AC50 [17]: 39 µM (inactive)
